From patent US20090069215A1, “Acylated Single Chain Insulin” (Novo Nordisk A/S, priority 2006, published 2009)

These substances were tested against human insulin receptor (Homo sapiens, UniProt P06213) (assay: Insulin receptor binding, SPA antibody capture assay (assay (I))). Settings: recombinant human insulin receptor - exon 11, A14 Tyr[125I]-human insulin tracer, human insulin = 100%.
Experimental: Insulin Receptor Binding of the Acylated, Single-Chain Insulin
The affinity of the acylated, single-chain insulins for the human insulin receptor can be determined by a SPA assay (Scintillation Proximity Assay) microtiterplate antibody capture assay. SPA-PVT antibody-binding beads, anti-mouse reagent (Amersham Biosciences, Cat No. PRNQ0017) are mixed with 25 ml of binding buffer (100 mM HEPES pH 7.8; 100 mM sodium chloride, 10 mM MgSO4, 0.025% Tween-20). Reagent mix for a single Packard Optiplate (Packard No. 6005190) is composed of 2.4 μl of a 1:5000 diluted purified recombinant human insulin receptor—exon 11, an amount of a stock solution of A14 Tyr[125I]-human insulin corresponding to 5000 cpm per 100 μl of reagent mix, 12 μl of a 1:1000 dilution of F12 antibody, 3 ml of SPA-beads and binding buffer to a total of 12 ml. A total of 100 μl is then added and a dilution series is made from appropriate samples. To the dilution series is then added 100 μl of reagent mix and the samples are incubated for 16 hours while gently shaken. The phases are then separated by centrifugation for 1 min and the plates counted in a Topcounter. The binding data are fitted using the nonlinear regression algorithm in the GraphPad Prism 2.01 (GraphPad Software, San Diego, Calif.).

human insulin receptor, sequence (P06213 28-746 isoform P06213-2 limits assumed): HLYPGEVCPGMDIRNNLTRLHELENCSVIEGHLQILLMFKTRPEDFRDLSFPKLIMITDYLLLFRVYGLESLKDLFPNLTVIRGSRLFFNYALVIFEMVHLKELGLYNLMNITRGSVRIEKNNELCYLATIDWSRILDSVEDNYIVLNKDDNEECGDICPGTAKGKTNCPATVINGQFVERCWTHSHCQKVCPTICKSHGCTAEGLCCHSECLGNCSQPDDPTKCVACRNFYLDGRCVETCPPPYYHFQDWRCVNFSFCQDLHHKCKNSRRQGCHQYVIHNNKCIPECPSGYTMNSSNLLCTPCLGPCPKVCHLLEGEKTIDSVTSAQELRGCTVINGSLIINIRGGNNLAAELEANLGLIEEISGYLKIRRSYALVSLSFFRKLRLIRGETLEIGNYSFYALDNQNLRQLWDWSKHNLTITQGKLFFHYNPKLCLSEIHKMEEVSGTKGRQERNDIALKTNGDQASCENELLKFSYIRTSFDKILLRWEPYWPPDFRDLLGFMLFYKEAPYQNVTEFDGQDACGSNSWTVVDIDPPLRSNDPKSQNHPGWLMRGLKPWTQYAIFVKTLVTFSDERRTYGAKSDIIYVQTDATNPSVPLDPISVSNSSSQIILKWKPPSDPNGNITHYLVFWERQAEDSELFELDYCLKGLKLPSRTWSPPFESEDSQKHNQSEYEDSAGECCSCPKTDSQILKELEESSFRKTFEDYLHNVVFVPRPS
human insulin receptor, sequence (P06213 763-1382 partner limits assumed): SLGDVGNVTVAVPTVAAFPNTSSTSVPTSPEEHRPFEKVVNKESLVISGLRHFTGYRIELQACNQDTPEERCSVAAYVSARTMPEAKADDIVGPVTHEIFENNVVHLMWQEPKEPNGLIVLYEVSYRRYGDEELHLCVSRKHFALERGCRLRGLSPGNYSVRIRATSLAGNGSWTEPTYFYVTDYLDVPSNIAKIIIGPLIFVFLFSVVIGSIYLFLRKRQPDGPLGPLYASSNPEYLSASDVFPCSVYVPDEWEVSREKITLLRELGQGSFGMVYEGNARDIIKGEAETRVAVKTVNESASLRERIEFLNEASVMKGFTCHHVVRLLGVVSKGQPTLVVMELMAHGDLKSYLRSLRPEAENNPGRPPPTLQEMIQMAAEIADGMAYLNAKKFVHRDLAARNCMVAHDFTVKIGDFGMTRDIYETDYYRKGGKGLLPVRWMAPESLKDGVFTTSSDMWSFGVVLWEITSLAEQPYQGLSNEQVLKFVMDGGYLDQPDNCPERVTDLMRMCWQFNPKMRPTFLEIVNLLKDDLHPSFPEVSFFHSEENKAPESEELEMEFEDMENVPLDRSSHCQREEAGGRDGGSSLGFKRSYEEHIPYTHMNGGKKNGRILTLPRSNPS

Substance	insulin receptor binding relative to that of human insulin
B(1-29)-B22K(N(eps)hexadecandioyl-gGlu)-B29A-VGLSSGQ-A(1-21)-A18Q Human Insulin [Example 3]	64%
B(1-29)-B22K((eps)hexadecandioyl-gGlu)-B29H-TGLGSGR-A(1-21)-A18Q-A21G Human insulin [Example 4]	46%
B(1-29)-B22K(N(eps)hexadecandioyl-g-L-Glu-amide)-B29H-TGLGSGR-A(1-21)-A18Q-A21G Human insulin [Example 6]	105%
B(1-29)-B22K((eps)myristoyl)-B29A-VGLSSGQ-A(1-21)-A18Q Human Insulin [Example 1]	46%
B(1-29)-B22K(N(eps)octadecandioyl)-B29A-VGLSSGQ-A(1-21)-A18Q Human Insulin [Example 2]	16%
B(1-29)-B22K(N(eps)heptadecandioyl)-B29H-TGLGSGR-A(1-21)-A18Q-A21G Human insulin [Example 7]	119%
B(1-29)-B22K((eps)hexadecandioyl-gGlu)-B29Q-TGLGSGR-A(1-21)-A18Q-A21G Human insulin [Example 5]	154%
B(1-29)-B22K(N(eps)heptadecandioyl-g-L-Glu)-B29H-TGLGSGR-A(1-21)-A18Q-A21G Human insulin [Example 8]	53%

What follows are substances tested against purified recombinant human insulin receptor-exon 11 (human) (UniProt P06213) (assay: assay (I): SPA competition, displacement of A14 Tyr[125I]-human insulin from recombinant human insulin receptor; reference human insulin). Settings: not given.
purified recombinant human insulin receptor-exon 11 (human), sequence (P06213 other isoform, or with tags, fused parts or gaps limits assumed, form in doubt): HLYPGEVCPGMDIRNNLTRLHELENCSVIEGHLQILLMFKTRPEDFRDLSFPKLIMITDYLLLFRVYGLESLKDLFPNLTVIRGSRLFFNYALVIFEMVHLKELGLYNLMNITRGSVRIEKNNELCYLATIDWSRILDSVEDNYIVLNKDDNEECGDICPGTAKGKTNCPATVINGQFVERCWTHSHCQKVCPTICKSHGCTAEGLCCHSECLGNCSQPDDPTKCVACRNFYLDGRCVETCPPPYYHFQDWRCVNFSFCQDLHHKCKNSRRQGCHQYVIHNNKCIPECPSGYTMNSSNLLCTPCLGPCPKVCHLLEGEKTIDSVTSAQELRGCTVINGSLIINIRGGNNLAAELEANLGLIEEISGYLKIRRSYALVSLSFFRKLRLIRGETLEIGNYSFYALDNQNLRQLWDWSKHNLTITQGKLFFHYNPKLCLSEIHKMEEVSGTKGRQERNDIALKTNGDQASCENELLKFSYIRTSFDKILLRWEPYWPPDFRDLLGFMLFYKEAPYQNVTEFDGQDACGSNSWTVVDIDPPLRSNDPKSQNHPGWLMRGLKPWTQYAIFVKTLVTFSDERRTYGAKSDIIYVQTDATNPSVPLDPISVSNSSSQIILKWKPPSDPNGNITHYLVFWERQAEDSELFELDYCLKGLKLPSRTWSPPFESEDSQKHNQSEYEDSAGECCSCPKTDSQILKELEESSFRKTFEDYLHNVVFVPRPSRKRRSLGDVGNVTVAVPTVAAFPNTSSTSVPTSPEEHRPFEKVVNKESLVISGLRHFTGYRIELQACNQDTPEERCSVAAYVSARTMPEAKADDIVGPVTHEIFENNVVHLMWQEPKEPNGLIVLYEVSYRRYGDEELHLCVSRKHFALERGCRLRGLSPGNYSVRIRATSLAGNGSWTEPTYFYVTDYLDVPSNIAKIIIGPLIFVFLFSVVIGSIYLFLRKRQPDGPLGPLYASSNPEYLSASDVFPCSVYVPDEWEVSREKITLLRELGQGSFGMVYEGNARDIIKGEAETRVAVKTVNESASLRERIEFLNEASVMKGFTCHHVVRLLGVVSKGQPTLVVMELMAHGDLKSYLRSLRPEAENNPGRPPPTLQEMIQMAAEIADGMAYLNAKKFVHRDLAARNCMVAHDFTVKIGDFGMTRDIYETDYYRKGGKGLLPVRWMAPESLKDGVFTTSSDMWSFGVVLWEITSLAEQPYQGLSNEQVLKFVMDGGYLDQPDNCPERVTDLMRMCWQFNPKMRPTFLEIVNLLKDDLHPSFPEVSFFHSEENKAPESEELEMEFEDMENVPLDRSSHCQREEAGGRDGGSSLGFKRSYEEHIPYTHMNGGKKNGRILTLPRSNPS

Substance	insulin receptor binding relative to that of human insulin
B(1-29)-B22K((eps)hexadecandioyl-gGlu)-B29H-TGLGSGR-A(1-21)-A18Q-A21G Human insulin (from UniProt P01308 25-53; P01308 90-110) (ligand)	46%
B(1-29)-B22K(N(eps)hexadecandioyl-gGlu)-B29A-VGLSSGQ-A(1-21)-A18Q Human Insulin (from UniProt P01308 25-53; P01308 90-110) (ligand)	64%
B(1-29)-B22K(N(eps)octadecandioyl)-B29A-VGLSSGQ-A(1-21)-A18Q Human Insulin (from UniProt P01308 25-53; P01308 90-110) (ligand)	16%

Further lines, results first:

insulin receptor binding relative to that of human insulin	Substance
105%	B(1-29)-B22K(N(eps)hexadecandioyl-g-L-Glu-amide)-B29H-TGLGSGR-A(1-21)-A18Q-A21G Human insulin (from UniProt P01308 25-53; P01308 90-110) (ligand)
53%	B(1-29)-B22K(N(eps)heptadecandioyl-g-L-Glu)-B29H-TGLGSGR-A(1-21)-A18Q-A21G Human insulin (from UniProt P01308 25-53; P01308 90-110) (ligand)
154%	B(1-29)-B22K((eps)hexadecandioyl-gGlu)-B29Q-TGLGSGR-A(1-21)-A18Q-A21G Human insulin (from UniProt P01308 25-53; P01308 90-110) (ligand)
119%	B(1-29)-B22K(N(eps)heptadecandioyl)-B29H-TGLGSGR-A(1-21)-A18Q-A21G Human insulin (from UniProt P01308 25-53; P01308 90-110) (ligand)
46%	B(1-29)-B22K((eps)myristoyl)-B29A-VGLSSGQ-A(1-21)-A18Q Human Insulin (from UniProt P01308 25-53; P01308 90-110) (ligand)
